# Data reported in PubChem BioAssay (NCI).
#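 Step 1: Grow cells in 96-well plates. Step 2: Expose to compound for 48 hours at 5 concentrations. Step 3: Interpolate endpoints linearly; if unreached, use highest concentration. TGI: concentration producing complete growth inhibition.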
# How the values were obtained:
# Assay in all cases: inhibition of tumour cell growth, NCI panel, 48 h
# [1] = tested on: CAKI-1 renal
# [2] = tested on: MDA-N
# [3] = tested on: HOP-62 NSCLC
# [4] = tested on: NCI/ADR-RES ovarian
# [5] = tested on: TK-10 renal
# [6] = tested on: SF-539 CNS
# [7] = tested on: COLO 205 colon
# [8] = tested on: SK-MEL-28 melanoma
# [9] = tested on: 786-0 renal
# [10] = tested on: UACC-257 melanoma
# [11] = tested on: SNB-19 CNS
# [12] = tested on: PC-3 prostate
# [13] = tested on: A498 renal
# [14] = tested on: HCT-116 colon
# [15] = tested on: UACC-62 melanoma
# [16] = tested on: SW-620 colon
# [17] = tested on: HCT-15 colon
# [18] = tested on: SF-268 CNS
# [19] = tested on: SK-OV-3 ovarian
# [20] = tested on: OVCAR-8 ovarian
# [21] = tested on: OVCAR-5 ovarian
# [22] = tested on: HOP-92 NSCLC
# [23] = tested on: BT-549 breast
# [24] = tested on: KM12 colon
# [25] = tested on: U251 CNS
# [26] = tested on: LOX IMVI melanoma
# [27] = tested on: HT29 colon
# [28] = tested on: MCF7 breast
# [29] = tested on: SN12C renal
# [30] = tested on: HCC-2998 colon
# [31] = tested on: NCI-H522 lung
# [32] = tested on: SF-295 CNS
# [33] = tested on: MALME-3M melanoma
# [34] = tested on: A549 NSCLC
# [35] = tested on: MDA-MB-231 breast
# [36] = tested on: HS 578T breast
# [37] = tested on: K-562 leukemia
# [38] = tested on: MDA-MB-435
# [39] = tested on: SK-MEL-5 melanoma
# [40] = tested on: IGROV1 ovarian
# [41] = tested on: ACHN renal
# [42] = tested on: SNB-75 CNS
# [43] = tested on: MOLT-4 leukemia
# [44] = tested on: SK-MEL-2 melanoma
# [45] = tested on: CCRF-CEM leukemia
# [46] = tested on: OVCAR-4 ovarian
# [47] = tested on: EKVX NSCLC
# [48] = tested on: NCI-H460 lung
# [49] = tested on: NCI-H226 lung
# [50] = tested on: RXF 393 renal
# [51] = tested on: M14 melanoma
# [52] = tested on: DU-145 prostate
# [53] = tested on: HL-60(TB) leukemia
# [54] = tested on: OVCAR-3 ovarian
# [55] = tested on: RPMI-8226 leukemia
# [56] = tested on: NCI-H23 lung
# [57] = tested on: UO-31 renal
# [58] = tested on: SR leukemia
smiles,measurement,setting,value
COc1cccc(NC(=O)c2c(SC)c(C#N)c(=O)n(N)c2N)c1,TGI,[1],> 100 µM
same,TGI,[2],> 100 µM
same,TGI,[3],> 100 µM
same,TGI,[4],> 100 µM
same,TGI,[5],> 100 µM
same,TGI,[6],> 100 µM
same,TGI,[7],> 100 µM
same,TGI,[8],> 100 µM
same,TGI,[9],> 100 µM
same,TGI,[10],> 100 µM
same,TGI,[11],98.6 µM
same,TGI,[12],> 100 µM
same,TGI,[13],> 100 µM
same,TGI,[14],> 100 µM
same,TGI,[15],> 100 µM
same,TGI,[16],> 100 µM
same,TGI,[17],> 100 µM
same,TGI,[18],> 100 µM
same,TGI,[19],> 100 µM
same,TGI,[20],> 100 µM
same,TGI,[21],> 100 µM
same,TGI,[22],> 100 µM
same,TGI,[23],> 100 µM
same,TGI,[24],> 100 µM
same,TGI,[25],> 100 µM
same,TGI,[26],> 100 µM
same,TGI,[27],> 100 µM
same,TGI,[28],> 100 µM
same,TGI,[29],> 100 µM
same,TGI,[30],> 100 µM
same,TGI,[31],> 100 µM
same,TGI,[32],> 100 µM
same,TGI,[33],> 100 µM
same,TGI,[34],> 100 µM
same,TGI,[35],> 100 µM
same,TGI,[36],> 100 µM
same,TGI,[37],> 100 µM
same,TGI,[38],> 100 µM
same,TGI,[39],> 100 µM
same,TGI,[40],> 100 µM
same,TGI,[41],> 100 µM
same,TGI,[42],81.3 µM
same,TGI,[43],> 100 µM
same,TGI,[44],> 100 µM
same,TGI,[45],> 100 µM
same,TGI,[46],> 100 µM
same,TGI,[47],> 100 µM
same,TGI,[48],> 100 µM
same,TGI,[49],> 100 µM
same,TGI,[50],> 100 µM
same,TGI,[51],> 100 µM
COc1ccc(COC(=O)NNC(=O)C2CSC(c3ccccc3)N2C(C)=O)cc1 (centres undefined),TGI,[1],> 100 µM
same,TGI,[52],> 100 µM
same,TGI,[2],> 100 µM
same,TGI,[3],> 100 µM
same,TGI,[4],> 100 µM
same,TGI,[5],> 100 µM
same,TGI,[6],> 100 µM
same,TGI,[53],> 100 µM
same,TGI,[9],> 100 µM
same,TGI,[10],> 100 µM
same,TGI,[11],> 100 µM
same,TGI,[12],> 100 µM
same,TGI,[13],> 100 µM
same,TGI,[14],> 100 µM
same,TGI,[15],> 100 µM
same,TGI,[16],> 100 µM
same,TGI,[17],> 100 µM
same,TGI,[18],> 100 µM
same,TGI,[19],> 100 µM
same,TGI,[20],> 100 µM
same,TGI,[21],> 100 µM
same,TGI,[22],> 100 µM
same,TGI,[23],> 100 µM
same,TGI,[24],> 100 µM
same,TGI,[25],> 100 µM
same,TGI,[26],> 100 µM
same,TGI,[27],> 100 µM
same,TGI,[28],> 100 µM
same,TGI,[29],> 100 µM
same,TGI,[30],> 100 µM
same,TGI,[31],> 100 µM
same,TGI,[32],> 100 µM
same,TGI,[33],> 100 µM
same,TGI,[34],> 100 µM
same,TGI,[36],> 100 µM
same,TGI,[37],> 100 µM
same,TGI,[38],> 100 µM
same,TGI,[54],> 100 µM
same,TGI,[55],> 100 µM
same,TGI,[39],> 100 µM
same,TGI,[40],> 100 µM
same,TGI,[41],> 100 µM
same,TGI,[42],> 100 µM
same,TGI,[43],> 100 µM
same,TGI,[44],> 100 µM
same,TGI,[45],> 100 µM
same,TGI,[46],> 100 µM
same,TGI,[56],> 100 µM
same,TGI,[47],> 100 µM
same,TGI,[48],> 100 µM
same,TGI,[57],> 100 µM
same,TGI,[49],> 100 µM
same,TGI,[51],> 100 µM
Cc1ccc(-n2c(C)n[nH]c2=O)cc1,TGI,[52],> 100 µM
same,TGI,[58],> 100 µM
same,TGI,[2],> 100 µM
same,TGI,[3],> 100 µM
same,TGI,[4],> 100 µM
same,TGI,[5],> 100 µM
same,TGI,[6],> 100 µM
same,TGI,[7],> 100 µM
same,TGI,[8],> 100 µM
same,TGI,[9],> 100 µM
same,TGI,[10],> 100 µM
same,TGI,[11],> 100 µM
same,TGI,[12],> 100 µM
same,TGI,[14],> 100 µM
same,TGI,[15],> 100 µM
same,TGI,[16],> 100 µM
same,TGI,[17],> 100 µM
same,TGI,[18],> 100 µM
same,TGI,[19],> 100 µM
same,TGI,[20],> 100 µM
same,TGI,[21],> 100 µM
same,TGI,[22],> 100 µM
same,TGI,[23],> 100 µM
same,TGI,[24],> 100 µM
same,TGI,[25],> 100 µM
same,TGI,[26],> 100 µM
same,TGI,[27],> 100 µM
same,TGI,[28],> 100 µM
same,TGI,[29],> 100 µM
same,TGI,[30],> 100 µM
same,TGI,[31],> 100 µM
same,TGI,[32],> 100 µM
same,TGI,[34],> 100 µM
same,TGI,[35],> 100 µM
same,TGI,[37],> 100 µM
same,TGI,[38],> 100 µM
same,TGI,[54],> 100 µM
same,TGI,[55],> 100 µM
same,TGI,[39],> 100 µM
same,TGI,[40],> 100 µM
same,TGI,[41],> 100 µM
same,TGI,[42],> 100 µM
same,TGI,[43],> 100 µM
same,TGI,[44],> 100 µM
same,TGI,[45],> 100 µM
same,TGI,[56],> 100 µM
same,TGI,[47],> 100 µM
same,TGI,[57],> 100 µM
same,TGI,[50],> 100 µM
same,TGI,[51],> 100 µM
